Results on four molecules are retold here after publication PMC4466525, “Design, Synthesis and Structure-Activity Relationship Studies of Novel Survivin Inhibitors with Potent Anti-Proliferative Properties” (PLoS ONE, 2015).

Test [1] relates to M14. Nature of the test: Cell viability (MTS) anti-proliferative assay, M14. The test is classed as cell-based. To be noted: M14 human melanoma, 48 h treatment, n = 4, read-out: IC50 values ± SEM, M14. The method, then:
(§1) The anti-proliferative effect of UC-112 and its analogs were tested in human melanoma (A375, M14 and M14/LCC6MDR1) and human prostate cancer (PC-3) cell lines. All the cell lines were purchased from ATCC (American Type Culture Collection, Manassas, VA). The cancer cells were cultured using the supplemented cell culture medium as described before at 37°C in a humidified atmosphere containing 5% CO2. 5000 cells in logarithm growing phase were seeded overnight into each well of a 96-well plate. Then the cells were continuously incubated with sequential diluted compound solution (10 nM to 100 μM, 100 μl per well) in cell culture medium.

The test system of test [2] is A375. Briefly: Cell viability (MTS) anti-proliferative assay, A375. The test is classed as cell-based. The note with it: A-375, A375 human melanoma, 48 h treatment, n = 4, read-out: IC50 values ± SEM, A375. The method, then: as §1
In test [3] the test system is M14/LCC6MDR1. Nature of the test: Cell viability (MTS) anti-proliferative assay, multidrug-resistant M14/LCC6MDR1. The test is classed as cell-based, human. The note with it: for IC50: Homo sapiens, 48 h, multidrug-resistant M14/LCC6MDR1 melanoma, 48 h treatment, MTS, n = 4, read-out: IC50 values ± SEM, M14/LCC6MDR1; for Resistance Index: IC50 on M14/LCC6MDR1 divided by IC50 on parental M14. The method, then:
as §1

Test [4] deals with NCI-60 cell lines. Nature of the test: NCI-60 cell line screening (SRB), whole panel. The note with it: for Activity in NCI-60 one-concentration screening: 10 μM. The test is classed as cell-based, human. The method, then: Four compounds including the parental compound UC-112 were submitted to National Cancer Institute for its NCI-60 cell line screening, initially tested at one concentration (10 μM), and subsequently selected for full five concentration testing following the standard protocols disclosed by NCI [34]. In brief, cells were plated into 96 well micro-titer plates 24 h prior to the treatment of compound solution for 48 h, then the cell viability was read out through absorbance of sulforhodamine B (SRB) staining.

Test [5] has as its system PC-3. Briefly: Cell viability (MTS) anti-proliferative assay, PC-3. The test is classed as cell-based. The note with it: PC-3 human prostate cancer, 48 h treatment, n = 4, read-out: IC50 values ± SEM, PC-3. The method, then:
as §1

For test [6], the system named is caspase 3/7. Briefly: Caspase 3/7 functional assay (Caspase-Glo 3/7). The test is classed as cell-based, human. The note with it: 1 μM, 24 h, A375 or PC-3 cells, N = 3. The method, then:
The caspase 3/7 activity of cancer cells treated by DMSO control or compound of interest was analyzed using Glo Caspase-Glo 3/7 kit from Promega Corporation (Madison, WI) as per manufacturer’s instructions in similar protocol as described before. The readings of relative luminescence unit were normalized by the cell viability read from the same well determined by compatible CytoTox-Fluor Cytotoxicity assay kit (Promega, WI).

Test [7] has as its target T1, survivin (Homo sapiens, UniProt O15392).
T1 construct: endogenous in cells; host or cells: A375 cells
Nature of the test: Western blotting of survivin level, A375 cells. The test is classed as cell-based. The method, then:
(§2) Lysates of A375 cells treated by the compound solution for 24 h were used to determine the change of IAP protein levels through western blotting. Primary rabbit antibodies against survivin, XIAP, cIAP1, cIAP2, livin and GAPDH were purchased from Cell Signaling Technology, Inc. (Danvers, MA) and used according to manufacture instructions as reported previously. Protein lane intensities were quantified by ImageJ software (US National Institutes of Health, Bethesda, MD).

Test [8] addresses T1, survivin. Briefly: Western blotting of survivin level, PC-3 cells. The test is classed as cell-based. To be noted: gradient increasing dose, 24 h. In general terms: A western blot detects proteins with antibodies after separation by electrophoresis.
For test [9], the system named is other IAPs (XIAP, cIAP1, cIAP2, livin). Nature of the test: Western blotting of other IAP levels. The test is classed as cell-based, human. The note with it: 24 h, A375 and PC-3 cells. The method, then:
as §2

T1 sequence (O15392 whole entry): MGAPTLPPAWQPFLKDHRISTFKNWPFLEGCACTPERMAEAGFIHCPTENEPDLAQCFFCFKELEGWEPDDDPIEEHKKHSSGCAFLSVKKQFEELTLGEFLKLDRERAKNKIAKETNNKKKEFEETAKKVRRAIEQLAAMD

One may read the GI50 as the concentration at which growth is held to half of that of the control. Turning to `Oc1c(CN2CCCC2)cc(COCc2ccccc2)c2cccnc12` [UC-112, 5-((benzyloxy)methyl)-7-(pyrrolidin-1-ylmethyl)quinolin-8-ol, reference compound], the IC50 in [1] is 2100 ± 300 nM; in [2] it was 1900 ± 600 nM; in test [3], 3200 ± 500 nM; in test [5] it was 1600 ± 1000 nM. In addition, the “Resistance Index” value in test [3] was 1.5. Further, the GI50 in test [4] (Homo sapiens, five dose testing, 48 h, SRB, read-out: Average GI50 over all cancer cell lines in the NCI-60 panel) stood at 2200 nM. Also, the “Activity in NCI-60 one-concentration screening” value (from here on “Activity”) in test [4] is recorded as “good activity”.
`Oc1c(CN2CCCC2)cc(COCc2ccc(Br)cc2)c2cccnc12` [4c, 5-(((4-bromobenzyl)oxy)methyl)-7-(pyrrolidin-1-ylmethyl)quinolin-8-ol]: the IC50 in test [1] came out at 1000 ± 200 nM; in test [2], 900 ± 200 nM; in test [3], 1800 ± 600 nM; in test [5], 700 ± 300 nM. Also, in [6], the “Caspase 3/7 activation relative to DMSO control group” value is given as “up to 4 folds”. Moreover, the “Resistance Index” value in test [3] was 1.8. In addition, the “Activity” value in [4] is recorded as “good activity”.
For the molecule `Oc1c(CN2CCCC2)cc(CSCc2ccccc2)c2cccnc12` [12a, 5-((benzylthio)methyl)-7-(pyrrolidin-1-ylmethyl)quinolin-8-ol], the IC50 in test [1] is 1400 ± 200 nM; in [2], 1400 ± 300 nM; in [3], 2900 ± 600 nM; in test [5] it was 1100 ± 100 nM. Besides, in test [6], the “Caspase 3/7 activation relative to DMSO control group” value was “up to 4 folds”. In test [3], the “Resistance Index” value was 2.1. In addition, the “Activity” value in test [4] is recorded as “good activity”.
As for `CCc1ccc(COCc2cc(CN3CCCC3)c(O)c3ncccc23)cc1` [4f, 5-(((4-ethylbenzyl)oxy)methyl)-7-(pyrrolidin-1-ylmethyl)quinolin-8-ol], the “IC50 values for survivin inhibition” value in [7] (estimated from western blotting, A375 and PC-3 cells) is listed as “low nanomolar range”. Besides, in [7] (gradient increasing dose, 24 h, A375 cells), the “Effect on survivin level, A375” value is on record as “dose-dependently suppressed survivin level”. Besides, the IC50 in test [1] came out at 900 ± 100 nM; in test [2], 900 ± 100 nM; in test [3], 2700 ± 1000 nM; in test [5] it was 900 ± 100 nM. For the same molecule, the “Resistance Index” value in test [3] is on record as 3.0. In test [8], the “Effect on survivin level, PC-3” value is recorded as “dose-dependently suppressed survivin level”. The “Effect on levels of other IAPs” value in test [9] is listed as “minimally affected”.
